Measurements from ChEMBL document CHEMBL5154651, “Substituent effect of benzyl moiety in nitroquinoxaline small molecules upon DNA binding: Cumulative destacking of DNA nucleobases leading to histone eviction” (Eur J Med Chem, 2022).
Active and inactive are the calls of the source. The rule behind the calls is not given here.

Legend:
GC rich DNA [1] = test: Displacement of Ethidium bromide from native ds-GC12 short DNA (unknown origin) by Stern-Volmer quenching plot analysis; format: nucleic-acid assay
Calf thymus DNA [2] = test: Binding affinity to calf thymus DNA assessed as change in free energy by isothermal titration calorimetry; format: nucleic-acid assay; conditions: Bos taurus
Calf thymus DNA [3] = test: Binding affinity to calf thymus DNA assessed as change in enthalpy by isothermal titration calorimetry; format: nucleic-acid assay; conditions: Bos taurus
Calf thymus DNA [4] = test: Binding affinity to calf thymus DNA assessed as change in entropy by isothermal titration calorimetry; format: nucleic-acid assay; conditions: Bos taurus
Calf thymus DNA [5] = test: Binding affinity to calf thymus DNA by isothermal titration calorimetry; format: nucleic-acid assay; conditions: Bos taurus
DNA [6] = test: Induction of GC-rich pYUB12 plasmid DNA (unknown origin) unwinding assessed as DNA structural changes at DNA base-pair to compound ratio of 1:6 incubated for 16 hrs by mobility shift assay; format: nucleic-acid assay
GC rich DNA [7] = test: Disruption of native ds-GC12 DNA (unknown origin) base stacking interaction assessed as decrease in positive peak intensity at 283 nm at DNA base-pair to compound ratio of 1:4 by circular dichroism analysis; format: nucleic-acid assay
HCT-116 [8] = test: Induction of apoptosis in human HCT-116 cells assessed as necrotic cells at 0.75 uM incubated for 24 hrs by Annexin V-FITC and propidium iodide staining based flow cytometry analysis (reference value: 3.9%); format: functional
[9] = Induction of histone eviction from single assembled nucleosome (unknown origin) assessed as reduction in nucleosome band intensity at 60 uM incubated for 4 hrs by silver staining based gel electrophoresis assay
GC rich DNA [10] = test: Binding affinity to native ds-GC12 DNA assessed as shift in melting temperature at DNA-base pair to compound ratio of 1:1 by differential scanning calorimetry melting based analysis; format: nucleic-acid assay
[11] = Induction of histone eviction from single assembled nucleosome (unknown origin) assessed as unwrapping of histone from nucleosome at 15 to 20 uM incubated for 4 hrs by silver staining based gel electrophoresis assay; conditions: dose 15-20 µM
HCT-116 [12] = test: Induction of apoptosis in human HCT-116 cells assessed as necrotic cells at 1 uM incubated for 24 hrs by Annexin V-FITC and propidium iodide staining based flow cytometry analysis (reference value: 3.9%); format: functional
Supercoiled DNA = test: Induction of GC-rich pYUB12 plasmid DNA (unknown origin) unwinding assessed as complete structural change by measuring decrease in band intensity of supercoiled DNA at DNA base-pair to compound ratio of 1:1.5 incubated for 16 hrs by mobility shift assay; format: nucleic-acid assay
HCT-116 [13] = test: Induction of apoptosis in human HCT-116 cells assessed as necrotic cells at 0.5 uM incubated for 24 hrs by Annexin V-FITC and propidium iodide staining based flow cytometry analysis (reference value: 3.9%); format: functional
HCT-116 [14] = test: Cytotoxicity against human HCT-116 cells assessed as reduction in cell viability incubated for 24 hrs by MTT assay; format: functional, cell-based; conditions: HCT-116, 24 h
HCT-116 [15] = test: Induction of apoptosis in human HCT-116 cells assessed as early apoptotic cells at 1 uM incubated for 24 hrs by Annexin V-FITC and propidium iodide staining based flow cytometry analysis (reference value: 0.6%); format: functional
HCT-116 [16] = test: Induction of apoptosis in human HCT-116 cells assessed as viable cells at 0.75 uM incubated for 24 hrs by Annexin V-FITC and propidium iodide staining based flow cytometry analysis (reference value: 95.3%); format: functional; conditions: read-out: Activity
GC rich DNA [17] = test: Disruption of native ds-GC12 DNA (unknown origin) base stacking interaction assessed as decrease in positive peak intensity at 283 nm by circular dichroism analysis; format: nucleic-acid assay
DNA [18] = test: Binding affinity to GC-rich pYUB12 plasmid DNA (unknown origin) assessed as induction of DNA unwinding by measuring band shifting at DNA base-pair to compound ratio of 1:1 incubated for 16 hrs by mobility shift assay; format: nucleic-acid assay
HCT-116 [19] = test: Induction of apoptosis in human HCT-116 cells assessed as early apoptotic cells at 0.75 uM incubated for 24 hrs by Annexin V-FITC and propidium iodide staining based flow cytometry analysis (reference value: 0.6%); format: functional
HCT-116 [20] = test: Induction of DNA damage in human HCT-116 cells assessed as induction of phosphorylation of gamma-H2AX variant at 0.75 uM incubated for 4 hrs by DAPI staining based immunofluorescence analysis; format: functional, cell-based
GC rich DNA [21] = test: Binding affinity to native ds-GC12 DNA assessed as increase in transition temperature of oligonucleotides at DNA-base pair to compound ratio of 1:4 by differential scanning calorimetry melting based analysis; format: nucleic-acid assay
HCT-116 [22] = test: Induction of apoptosis in human HCT-116 cells assessed as late apoptotic cells at 0.75 uM incubated for 24 hrs by Annexin V-FITC and propidium iodide staining based flow cytometry analysis (reference value: 0.3%); format: functional
HCT-116 [23] = test: Induction of apoptosis in human HCT-116 cells assessed as late apoptotic cells at 1 uM incubated for 24 hrs by Annexin V-FITC and propidium iodide staining based flow cytometry analysis (reference value: 0.3%); format: functional
HCT-116 [24] = test: Induction of apoptosis in human HCT-116 cells assessed as increase in uptake of fluorescent nucleotide at 0.5 to 0.75 uM incubated for 4 hrs by TUNEL assay; format: functional, cell-based; conditions: dose 0.5-0.75 µM
DNA [25] = test: Induction of GC-rich pYUB12 plasmid DNA (unknown origin) superstructure formation assessed as height of plasmid DNA at DNA base-pair to compound ratio of 1:1.5 by Atomic Force Microscopic analysis (reference value: 0.26 +/-0.08 nm); format: nucleic-acid assay
GC rich DNA [26] = test: Binding affinity to native ds-GC12 DNA assessed as reduction in melting temperature at DNA-base pair to compound ratio of 1:1 by differential scanning calorimetry melting based analysis; format: nucleic-acid assay
DNA [27] = test: Induction of GC-rich pYUB12 plasmid DNA (unknown origin) superstructure formation assessed as DNA compaction with DNA over-supercoiling at DNA base-pair to compound ratio of 1:1.5 by Atomic Force Microscopic analysis; format: nucleic-acid assay
DNA [28] = test: Induction of GC-rich pYUB12 plasmid DNA (unknown origin) superstructure formation assessed as uncoiling of DNA with nodes and loops formation and DNA compaction at DNA base-pair to compound ratio of 1:0.5 by Atomic Force Microscopic analysis; format: nucleic-acid assay
HCT-116 [29] = test: Induction of apoptosis in human HCT-116 cells assessed as viable cells at 0.5 uM incubated for 24 hrs by Annexin V-FITC and propidium iodide staining based flow cytometry analysis (reference value: 95.3%); format: functional; conditions: read-out: Activity
HCT-116 [30] = test: Induction of DNA double strand breaks in human HCT-116 cells assessed as increase in tail length at 0.5 to 0.75 uM incubated for 24 hrs by neutral comet assay; format: functional, cell-based; conditions: dose 0.5-0.75 µM
GC rich DNA [31] = test: Disruption of native ds-GC12 DNA (unknown origin) base stacking interaction assessed as deformation of DNA native structure at DNA base-pair to compound ratio of 1:4 by circular dichroism analysis; format: nucleic-acid assay
[32] = Induction of histone eviction from single assembled nucleosome (unknown origin) assessed as maximum unwrapping of histone from nucleosome at 25 uM incubated for 4 hrs by silver staining based gel electrophoresis assay
HCT-116 [33] = test: Induction of apoptosis in human HCT-116 cells assessed as early apoptotic cells at 0.5 uM incubated for 24 hrs by Annexin V-FITC and propidium iodide staining based flow cytometry analysis (reference value: 0.6%); format: functional
HCT-116 [34] = test: Induction of apoptosis in human HCT-116 cells assessed as late apoptotic cells at 0.5 uM incubated for 24 hrs by Annexin V-FITC and propidium iodide staining based flow cytometry analysis (reference value: 0.3%); format: functional
HCT-116 [35] = test: Induction of DNA double strand breaks in human HCT-116 cells incubated for 24 hrs by neutral comet assay; format: functional, cell-based; conditions: dose 0.5-0.75 µM, DDE = dose-dependent effect
DNA [36] = test: Induction of GC-rich pYUB12 plasmid DNA (unknown origin) superstructure formation assessed as DNA compaction with distorted structure at DNA base-pair to compound ratio of 1:1 by Atomic Force Microscopic analysis; format: nucleic-acid assay
HCT-116 [37] = test: Induction of DNA damage in human HCT-116 cells assessed as induction of phosphorylation of gamma-H2AX variant incubated for 4 hrs by DAPI staining based immunofluorescence analysis; format: functional, cell-based; conditions: HCT-116, 4 h
HCT-116 [38] = test: Induction of apoptosis in human HCT-116 cells assessed as viable cells at 1 uM incubated for 24 hrs by Annexin V-FITC and propidium iodide staining based flow cytometry analysis (reference value: 95.3%); format: functional; conditions: read-out: Activity
DNA [39] = test: Induction of GC-rich pYUB12 plasmid DNA (unknown origin) unwinding assessed as complete structural change with DNA condensation by measuring increase in condensed DNA band intensity at DNA base-pair to compound ratio of 1:1.5 incubated for 16 hrs by mobility shift assay; format: nucleic-acid assay
GC rich DNA [40] = test: Disruption of native ds-GC12 DNA base (unknown origin) stacking interaction assessed as change in peak intensity at 283 nm at 15 to 60 uM by ellipticity plot based analysis; format: nucleic-acid assay; conditions: dose 15-60 µM
GC rich DNA [41] = test: Disruption of native ds-GC12 DNA (unknown origin) base stacking interaction assessed as appearance of ICD at 320 to 330 nm by circular dichroism analysis; format: nucleic-acid assay
DNA [42] = test: Induction of GC-rich pYUB12 plasmid DNA (unknown origin) unwinding assessed as DNA structural changes at DNA base-pair to compound ratio of 1:4 incubated for 16 hrs by mobility shift assay; format: nucleic-acid assay
DNA [43] = test: Induction of GC-rich pYUB12 plasmid DNA (unknown origin) unwinding assessed as complete conformational change as condensed form at DNA base-pair to compound ratio of 1:2 incubated for 16 hrs by mobility shift assay; format: nucleic-acid assay
GC rich DNA [44] = test: Disruption of native ds-GC12 DNA (unknown origin) base stacking interaction assessed as DNA structural changes at DNA base-pair to compound ratio of 1:4 by circular dichroism analysis; format: nucleic-acid assay
GC rich DNA [45] = test: Disruption of native ds-GC12 DNA (unknown origin) base stacking interaction assessed as DNA structural changes by circular dichroism analysis; format: nucleic-acid assay

CN(C)CCCNc1nc2cc([N+](=O)[O-])ccc2nc1NCc1ccc(O)cc1
KSV (GC rich DNA [1]): < 1 10^4/M | deltaG (Calf thymus DNA [2]): -6.38 kcal/mol | deltaH (Calf thymus DNA [3]): -1.5 kcal/mol | TdeltaS (Calf thymus DNA [4]): 4.88 kcal/mol | Ka (Calf thymus DNA [5]): 3.96 10^4/M | Activity (DNA [6]): Active | Activity (GC rich DNA [7]): Active

CN(C)CCCNc1nc2cc([N+](=O)[O-])ccc2nc1NCc1ccc(I)cc1
Activity (HCT-116 [8]): 0.4% | Activity [9]: Active | Tm (GC rich DNA [10]): 49.5 °C | Activity [11]: Active | KSV (GC rich DNA [1]): 5.8 10^4/M | deltaG (Calf thymus DNA [2]): -7.87 kcal/mol | Activity (HCT-116 [12]): 0.7% | Activity (Supercoiled DNA): Active | Activity (HCT-116 [13]): 0.3% | IC50 (HCT-116 [14]): 440 nM | Activity (HCT-116 [15]): 69.3% | deltaH (Calf thymus DNA [3]): -1.75 kcal/mol | TdeltaS (Calf thymus DNA [4]): 6.12 kcal/mol | viability at 0.75 µM (HCT-116 [16]): 1.7% | Activity (GC rich DNA [17]): Active | Activity (DNA [18]): Active | Activity (HCT-116 [19]): 76.8% | Activity (HCT-116 [20]): Active | ΔTm (GC rich DNA [21]): 12 °C | Activity (HCT-116 [22]): 21.1% | Activity (HCT-116 [23]): 27% | Activity (HCT-116 [24]): Active | Ka (Calf thymus DNA [5]): 4.66 10^5/M | Activity (DNA [6]): Active | Activity (DNA [25]): 1.48 nm | ΔTm (GC rich DNA [26]): 2.5 °C | Activity (DNA [27]): Active | Activity (DNA [28]): Active | viability at 0.5 µM (HCT-116 [29]): 2.2% | Activity (HCT-116 [30]): Active | Activity (GC rich DNA [31]): Active | Activity [32]: Active | Activity (HCT-116 [33]): 79.2% | Activity (HCT-116 [34]): 18.2% | Activity (HCT-116 [35]): Dde | Activity (DNA [36]): Active | IC50 (HCT-116 [37]): 500 nM | viability at 1 µM (HCT-116 [38]): 3% | Activity (DNA [39]): Active | Activity (GC rich DNA [40]): Active

CN(C)CCCNc1nc2cc([N+](=O)[O-])ccc2nc1NCc1ccc(C#N)cc1
KSV (GC rich DNA [1]): < 1 10^4/M | Activity (DNA [6]): Active

CN(C)CCCNc1nc2cc([N+](=O)[O-])ccc2nc1NCc1ccc(Cl)cc1
KSV (GC rich DNA [1]): 2.4 10^4/M | Activity (GC rich DNA [41]): Active | Activity (GC rich DNA [17]): Active | Activity (DNA [42]): Active

CN(C)CCCNc1nc2cc([N+](=O)[O-])ccc2nc1NCc1ccc(Br)cc1
KSV (GC rich DNA [1]): 2.8 10^4/M | Activity (DNA [43]): Active | Activity (GC rich DNA [41]): Active | Activity (GC rich DNA [17]): Active | Activity (DNA [6]): Active

CN(C)CCCNc1nc2cc([N+](=O)[O-])ccc2nc1NCc1cccs1
KSV (GC rich DNA [1]): < 0.3 10^4/M | Activity (GC rich DNA [44]): Active

O=[N+]([O-])c1ccc2nc(NCc3ccccc3)c(N3CCCCC3)nc2c1
KSV (GC rich DNA [1]): 0.19 10^4/M | IC50 (HCT-116 [14]): > 50000 nM

Cc1ccc(CNc2nc3ccc([N+](=O)[O-])cc3nc2NCCCN(C)C)cc1
KSV (GC rich DNA [1]): 1.7 10^4/M | deltaG (Calf thymus DNA [2]): -7.2 kcal/mol | deltaH (Calf thymus DNA [3]): -1.86 kcal/mol | TdeltaS (Calf thymus DNA [4]): 5.34 kcal/mol | Ka (Calf thymus DNA [5]): 1.54 10^5/M | Activity (DNA [42]): Active | Activity (GC rich DNA [45]): Active
